# Source: the supplement of paper PMC10307832
# How the values were obtained:
# Test in all cases: relative viability (nuclei count vs DMSO), 5 days (fraction); higher = more cells survive
# [1] = compound: O=C(Nc1c[nH]nc1-c1nc2ccc(CN3CCOCC3)cc2[nH]1)NC1CC1 [AT9283] + CC(=O)c1c(C)c2cnc(Nc3ccc(N4CCNCC4)cn3)nc2n(C2CCCC2)c1=O [Palbociclib] (partner 0.5 µM)
# How it was run: (§1)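 Medians of duplicate plates are given as relative viability. That measure is the nuclei count in treated wells divided by the count in vehicle wells. Counts were taken on 4× images of lung cancer cell lines in 1536-well plates, 5 days after pin-tool dosing the day after seeding with one drug alone or a fixed anchor-drug dose plus five library-drug doses (not always all listed) in √10 steps.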
# [2] = compound: O=C(Nc1c[nH]nc1-c1nc2ccc(CN3CCOCC3)cc2[nH]1)NC1CC1 [AT9283] + NC(=O)Nc1cc(-c2cccc(F)c2)sc1C(=O)N[C@H]1CCCNC1 [AZD7762] (partner 0.2 µM)
# How it was run: as §1
# [3] = compound: O=C(Nc1c[nH]nc1-c1nc2ccc(CN3CCOCC3)cc2[nH]1)NC1CC1 [AT9283] + CS(=O)(=O)CCNCc1ccc(-c2ccc3ncnc(Nc4ccc(OCc5cccc(F)c5)c(Cl)c4)c3c2)o1 [Lapatinib] (partner 2 µM)
# How it was run: as §1
# [4] = compound: C#Cc1cccc(Nc2ncnc3cc(OCCOC)c(OCCOC)cc23)c1 [Erlotinib] + NC(=O)Nc1cc(-c2cccc(F)c2)sc1C(=O)N[C@H]1CCCNC1 [AZD7762] (partner 0.2 µM)
# How it was run: as §1
# [5] = compound: C#Cc1cccc(Nc2ncnc3cc(OCCOC)c(OCCOC)cc23)c1 [Erlotinib] + COc1cc2c(Oc3ccc(NC(=O)C4(C(=O)Nc5ccc(F)cc5)CC4)cc3F)ccnc2cc1OCCCN1CCOCC1 [Foretinib] (partner 0.25 µM)
# How it was run: as §1
Cell Line,relative viability ([1]; first compound 0.003 µM),relative viability ([1]; first compound 0.03 µM),relative viability ([1]; first compound 0.09487 µM),relative viability ([1]; first compound 0.3 µM),relative viability ([2]; first compound 0.003 µM),relative viability ([2]; first compound 0.03 µM),relative viability ([2]; first compound 0.09487 µM),relative viability ([2]; first compound 0.3 µM),relative viability ([3]; first compound 0.003 µM),relative viability ([3]; first compound 0.03 µM),relative viability ([3]; first compound 0.09487 µM),relative viability ([3]; first compound 0.3 µM),relative viability ([4]; first compound 0.02 µM),relative viability ([4]; first compound 0.2 µM),relative viability ([4]; first compound 0.6325 µM),relative viability ([4]; first compound 2 µM),relative viability ([5]; first compound 0.02 µM),relative viability ([5]; first compound 0.2 µM),relative viability ([5]; first compound 0.6325 µM),relative viability ([5]; first compound 2 µM)
NCI-H1793,0.275,0.329,0.298,0.255,0.564,0.495,0.233,0.185,0.743,0.273,0.16,0.256,0.683,0.31,0.438,0.258,0.575,0.421,0.541,0.408
NCI-H1915,0.545,0.51,0.254,0.153,0.617,0.548,0.334,0.222,0.885,0.931,0.477,0.217,0.72,0.675,,0.659,1.08,1.2,1.12,1.1
NCI-H1944,0.336,0.241,0.188,0.172,0.594,0.246,0.184,0.125,0.731,0.598,0.271,0.204,0.541,0.419,0.538,0.387,0.833,0.54,0.579,0.56
NCI-H1975,0.526,0.676,0.531,0.324,0.7,0.711,0.622,0.458,0.891,0.225,0.208,0.196,0.704,0.682,0.605,0.495,0.951,1.02,,0.71
NCI-H1993,0.597,0.665,0.534,0.34,0.822,0.745,0.469,0.326,0.813,0.672,0.631,0.632,0.732,0.555,0.566,0.535,0.772,0.736,0.578,0.716
NCI-H2085,0.498,0.473,0.413,0.319,0.968,0.969,0.749,0.353,0.798,0.36,0.297,0.382,0.92,,0.732,0.454,1.14,0.739,0.649,0.559
NCI-H2087,0.218,0.234,0.117,0.121,1.35,0.686,0.348,0.244,0.894,0.269,0.222,0.186,1.4,1.33,1.29,1.17,1.12,1.18,1.12,0.964
NCI-H2126,0.341,0.35,0.365,0.272,0.979,1.05,0.969,0.339,0.748,0.737,0.66,0.296,1.03,1.01,0.892,0.688,1.29,1.05,0.947,0.764
NCI-H2170,0.446,0.37,0.198,0.148,0.794,0.485,0.162,0.153,0.242,0.261,0.2,0.2,0.862,0.737,0.54,0.35,1.04,1.05,0.935,0.656
NCI-H2347,0.444,0.515,0.475,0.346,0.781,0.676,0.324,0.341,0.894,0.866,0.571,0.501,0.689,0.856,0.783,0.655,0.877,0.841,1.08,0.61
NCI-H2405,0.519,0.407,0.284,0.196,0.771,0.566,0.208,0.163,1.15,0.789,0.295,0.198,0.749,0.669,0.774,0.652,,1.02,1.09,1.01
NCI-H3122,0.187,0.208,0.169,0.153,0.958,0.917,0.363,0.17,1.07,0.964,0.446,0.328,0.948,1.05,1,,0.982,0.989,0.963,0.884
PC-3 [JPC-3],0.602,0.533,0.575,0.484,0.826,0.741,0.609,0.394,0.444,0.436,0.422,0.304,0.639,0.522,0.415,0.356,0.935,0.384,0.323,0.36
PC-14,0.526,0.273,0.105,0.0809,0.341,0.371,0.206,0.0832,0.328,0.393,0.203,0.102,0.206,0.178,0.12,0.13,0.76,0.23,0.199,0.153
RERF-LC-KJ,1.17,0.77,0.475,0.302,0.836,0.578,0.387,0.243,0.809,0.516,0.256,0.191,0.846,0.944,0.949,0.608,0.875,0.834,0.803,0.715
